Results from ChEMBL document CHEMBL4342417, “Design, synthesis and evaluation of novel phenothiazine derivatives as inhibitors of breast cancer stem cells” (Eur J Med Chem, 2019).
Calls of active or inactive are those of the source. No cut-off for these calls is given here.

Tests used:
[1] = Toxicity in zebra fish assessed as survival rate at 250 uM observed for 24 hrs; set-up: species or system Danio rerio; details: zebrafish
[2] = target: Transcription factor p65 (Homo sapiens) (UniProt Q04206); test: Inhibition of LPS-stimulated NF-kappaB-p65 in human MDA-MB-231 cells at 0.40 and 0.80 uM incubated for 24 hrs by dual luciferase reporter gene assay; format: cell-based
SUM-159-PT [3] = test: Inhibition of mammosphere formation in human SUM159 cells assessed as reduction in number of mammosphere at 2 uM incubated for 10 days by microscopic analysis; format: functional
MCF7 [4] = test: Antiproliferative activity against human MCF7 cells assessed as reduction in cell viability incubated for 2 days by MTT assay; format: functional, cell-based; details: MCF7, 48 h
SUM-159-PT [5] = test: Inhibition of mammosphere formation in human SUM159 cells assessed as reduction in number of mammosphere at 1 uM incubated for 10 days by microscopic analysis; format: functional
KG-1a = test: Antiproliferative activity against human KG1a cells assessed as reduction in cell viability incubated for 2 days by MTT assay; format: functional, cell-based; details: 48 h
MDA-MB-231 [6] = test: Inhibition of cell migration of human MDA-MB-231 cells at 0.40 and 0.80 uM incubated for 48 hrs by scratch wound healing assay; format: functional, cell-based
MCF7 [7] = test: Inhibition of colony formation in human MCF7 cells incubated for 14 days with replacement of medium for every 3 or 4 days by crystal violet staining based visual analysis; format: functional, cell-based
SUM-159-PT [8] = test: Inhibition of mammosphere formation in human SUM159 cells incubated for 10 days by microscopic analysis; format: functional, cell-based
SUM-159-PT [9] = test: Antiproliferative activity against human SUM159 cells assessed as reduction in cell viability incubated for 2 days by MTT assay; format: functional, cell-based; details: 48 h
SUM-159-PT [10] = test: Inhibition of mammosphere formation in human SUM159 cells assessed as reduction in number of mammosphere at 0.5 uM incubated for 10 days by microscopic analysis; format: functional
MDA-MB-231 [11] = test: Antiproliferative activity against human MDA-MB-231 cells assessed as reduction in cell viability incubated for 2 days by MTT assay; format: functional, cell-based; details: MDA-MB-231, 48 h
SK-BR-3 = test: Antiproliferative activity against human SKBR3 cells assessed as reduction in cell viability incubated for 2 days by MTT assay; format: functional, cell-based; details: SK-BR-3, 48 h
MDA-MB-231 [12] = test: Downregulation of NF-kappaB-p65 expression in human MDA-MB-231 cells incubated for 48 hrs by Western blot analysis; format: functional, cell-based
MCF7 [13] = test: Inhibition of colony formation in human MCF7 cells at 0.20 uM incubated for 14 days with replacement of medium for every 3 or 4 days by crystal violet staining based visual analysis relative to control; format: functional

Sequence of Transcription factor p65 (Homo sapiens) (Q04206 whole entry): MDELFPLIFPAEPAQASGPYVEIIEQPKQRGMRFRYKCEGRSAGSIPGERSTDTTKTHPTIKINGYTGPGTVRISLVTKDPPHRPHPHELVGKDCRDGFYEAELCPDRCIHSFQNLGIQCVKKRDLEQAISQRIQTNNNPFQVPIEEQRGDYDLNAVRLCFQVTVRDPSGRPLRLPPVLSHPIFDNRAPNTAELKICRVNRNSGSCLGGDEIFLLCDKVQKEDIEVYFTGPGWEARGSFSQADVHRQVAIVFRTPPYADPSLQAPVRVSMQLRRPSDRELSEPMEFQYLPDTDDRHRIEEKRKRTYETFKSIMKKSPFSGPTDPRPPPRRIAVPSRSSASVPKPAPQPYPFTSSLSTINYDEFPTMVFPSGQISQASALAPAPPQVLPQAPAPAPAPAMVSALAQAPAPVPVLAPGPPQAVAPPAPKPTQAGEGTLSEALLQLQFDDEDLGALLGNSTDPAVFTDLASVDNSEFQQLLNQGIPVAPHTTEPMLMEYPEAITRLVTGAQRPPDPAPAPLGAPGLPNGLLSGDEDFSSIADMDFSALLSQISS

For `O=C(CCC(=O)N1CCN(CCCN2c3ccccc3Sc3ccccc32)CC1)OCCOc1no[n+]([O-])c1S(=O)(=O)c1ccccc1`, the survival at 24 h, 250 µM [1] was 51.6%, the inhibition [2] was “Active” and the Activity (SUM-159-PT [3]) was 1. The IC50 (MCF7 [4]) was 3230 nM, the Activity (SUM-159-PT [5]) was 2 and the IC50 (KG-1a) was 1780 nM. For the same molecule, the inhibition (MDA-MB-231 [6]) was “Active”, the inhibition (MCF7 [7]) was “Dose-dependent effect” and the inhibition (SUM-159-PT [8]) was “Dose-dependent effect”. For the same molecule, the IC50 (SUM-159-PT [9]) was 1780 nM, the Activity (SUM-159-PT [10]) was 8 and the IC50 (MDA-MB-231 [11]) was 1600 nM. The IC50 (SK-BR-3) was 2220 nM, the Activity (MDA-MB-231 [12]) was “Dose-dependent effect” and the inhibition at 0.2 µM (MCF7 [13]) was 10.3%.
